The values below come from PMC9775191, “A Subset Screen of the Compounds Australia Scaffold Library Identifies 7-Acylaminodibenzoxazepinones as Potent and Selective Hits for Anti-Giardia Drug Discovery” (Biomedicines, 2022).

Structures are written as SMILES.

This assay concerns G. duodenalis BRIS/91/HEPU/1279. Nature of the assay: Primary Giardia screen at 10 µM (live-cell imaging, automated counting). It counts as cell-based, Giardia duodenalis. As to conditions: for % Inhibition n=1 48h / % Inhibition n=1 24h: first singlicate assay; for % Inhibition n=2 24h / % Inhibition n=2 48h: re-assessment. The method in brief: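 Compounds were tested once each at 10 μM final (0.2% DMSO) in culture medium under 3% O2, 5% CO2 in N2. Growth was read at 24 and 48 h by live-cell imaging with automated counting, and inhibition expressed as percent growth versus 0.2% DMSO vehicle after media-only background subtraction.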

In the case of `Cc1nn(C(C)C)c(C)c1S(=O)(=O)N1CCN(C(=O)c2cccs2)CC1` [SN00790783], the “% Inhibition n=1 48h” value is recorded as 3.8%.
Consider `Cc1cccc(N(C)S(=O)(=O)c2cc(-c3ccno3)sc2C)c1` [SN00790813], for which the “% Inhibition n=1 48h” value came out at 6.1%.
Turning to `CCN1CCN(CCCNC(=O)c2cc3occc3c(Nc3ccc(OC)cc3)n2)CC1` [SN00790822], the “% Inhibition n=1 48h” value turned out to be 14.5%.
On to `O=C(c1cc2occc2c(Nc2ccc(F)cc2)n1)N1CCN(c2ccccn2)CC1` [SN00790827], for which the “Average % Inhibition 24h” value was found to be 14.2%, the “% Inhibition n=1 24h” value was found to be 21.9%, the “% Inhibition n=2 24h” value is given as 6.5% and the “Average % Inhibition 48h” value turned out to be 31.0%. In addition, the “% Inhibition n=1 48h” value worked out at 53.8% and the “% Inhibition n=2 48h” value turned out to be 8.1%.
Turning to `Cc1ccc(CNC(=O)C2CCN(c3ncccc3-n3cccc3)CC2)cc1` [SN00790865], the “% Inhibition n=1 48h” value is listed as 0.0%.
Same read-out and setting: as for `CCC(C)NC(=O)N1CCc2c(sc3nc(-c4ccc(C)cc4)nn23)C1` (stereo not shown) [SN00790900], the figure is 10.9%; as for `CCNC(=O)N1CCCC(c2cccc(C(=O)NCCC3=CCCCC3)c2)C1` (stereo not shown) [SN00790923], 6.9%; as for `CCOC(=O)c1cccc(NC(=O)c2cnc(C)nc2C)c1` [SN00790942], 0.0%.
On the same count and under the same terms, as for `Cc1ccc(-c2ncc(C(=O)NC3CCCCCC3)c(C)n2)cc1` [SN00790958], the figure is 0.0%.
As to `CCc1nc(-c2ccc3c(c2)CCN3C(=O)CCc2ccc(OC)cc2)no1` [SN00790989], the “% Inhibition n=1 48h” value is listed as 14.1%.
Still for that read-out and setting: next, `COc1ccccc1-c1cc(C(=O)N2CCCN(c3ccc(=O)n(-c4ccc(C)c(C)c4)n3)CC2)[nH]n1` [SN00791007]: 8.7%; `Cc1c(-c2nc(-c3cccnc3)no2)oc2ccc(S(=O)(=O)N3CCOCC3)cc12` [SN00791042]: 1.1%.
As for `CC(C)n1c(=O)c2cn(S(=O)(=O)c3ccccc3)nc2n(C(C)C)c1=O` [SN00791107], the “% Inhibition n=1 48h” value came out at 5.9%.
Same read-out and setting: next, `CCS(=O)(=O)N1CCC2(CC1)OC(=O)C(C)=C2C(=O)Nc1ccc(C)cc1C` [SN00791146]: 0.0%; `CCCN1CCN(C(=O)C2=C(C)C(=O)OC23CCN(S(=O)(=O)CC)CC3)CC1` [SN00791149]: 0.0%; `O=C(Cn1c2ncccc2c(=O)n1-c1ccccc1)NC1CCCC1` [SN00791196]: 18.2%.
For the compound `CCC1c2cccn2-c2ccccc2CN1C(=O)NCCc1ccccc1` (stereo not shown) [SN00791262], the “% Inhibition n=1 48h” value amounted to 18.8%.
Regarding `CCOCCCNC(=O)N1Cc2ccccc2-n2cccc2C1c1ccccc1` (stereo not shown) [SN00791279], the “% Inhibition n=1 48h” value turned out to be 0.0%.
The same measure, in the same setting: next, `COc1cc(-c2noc(-c3cc(-c4ccco4)n[nH]3)n2)cc(OC)c1OC` [SN00791289]: 2.3%; `COc1ccc(-c2noc(-c3cc(-c4cccs4)n[nH]3)n2)cc1` [SN00791300]: 15.5%; `COc1ccc(Cl)cc1-n1nnc(-c2nsc(NC(=O)c3ccccc3)n2)c1C` [SN00791316]: 20.0%.
As for `COCCN1C(=O)c2oc3ccccc3c2OCC1(C)C(=O)NCc1ccccc1OC` (stereo not shown) [SN00791365], the “% Inhibition n=1 48h” value amounted to 21.5%.
Same read-out and setting: next, `COCCCN1C(=O)CSc2c(c(C)nn2-c2ccccc2)C1C(=O)NCc1ccccc1OC` (stereo not shown) [SN00791374]: 0.0%; `Cc1nn(-c2ccccc2)c2c1C(C(=O)NC1CCCC1)N(c1ccc(F)cc1F)C(=O)CS2` (stereo not shown) [SN00791377]: 1.8%.
For the compound `Cc1[nH]c(C)c(S(=O)(=O)N2CCCc3ccccc32)c1C(=O)N1CCCCC1` [SN00791426], the “% Inhibition n=1 48h” value is 0.0%.
The same measure, in the same setting: as for `Cc1c(C(=O)N2CCCCC2)c(S(=O)(=O)N2CCN(c3ccccn3)CC2)c(C)n1C` [SN00791445], the figure is 0.0%.
The same measure, in the same setting: as for `COc1ccc(OC)c(CNC(=O)c2ccc(N3CCOc4ccccc43)s2)c1` [SN00791505], the figure is 9.9%; as for `CCCNC(=O)N1Cc2c(sc3c2CCCC3)-n2cccc2C1CC` (stereo not shown) [SN00791532], 15.0%.
Still for that read-out and setting: next, `COc1ccccc1NC(=O)N1Cc2c(sc3c2CCN(C)C3)-n2cccc2C1C` (stereo not shown) [SN00791542]: 24.5%; `CCOC(=O)c1ccccc1NC(=O)N1Cc2c(sc3c2CCN(C)C3)-n2cccc2C1CC` (stereo not shown) [SN00791557]: 10.1%.
As to `CCCN1C(=O)c2c(C(=O)NCCc3ccccc3)ncn2CC1(C)C(=O)NCCC(C)C` (stereo not shown) [SN00791583], the “% Inhibition n=1 48h” value amounted to 9.0%.
Still for that read-out and setting: next, `CCOc1ccc(CCNC(=O)c2c(C)oc3c2C2=NCCN2C=N3)cc1OCC` [SN00791607]: 17.8%; `COc1ccc(CN2CCN(C(=O)c3c(C)oc4c3C3=NCCN3C=N4)CC2)c(OC)c1OC` [SN00791620]: 7.4%.
For the compound `O=C(c1noc2ncnc(N3CCCC3)c12)N1CCN(c2ccccn2)CC1` [SN00791654], the “% Inhibition n=1 48h” value was determined as 7.3%.
Take `CCN(c1ccc(OC)cc1)S(=O)(=O)c1csc(C(=O)N(C)C)c1` [SN00791689]: the “% Inhibition n=1 48h” value worked out at 2.7%.
On the same count and under the same terms, as for `CCc1ccc(CNC(=O)c2c[nH]nc2-c2ccc(Cl)cc2)cc1` [SN00791699], the figure is 7.3%.
Consider `O=C(c1c[nH]nc1-c1ccc(Cl)cc1)N1CCN(c2ccccc2)CC1` [SN00791700], for which the “% Inhibition n=1 48h” value was 26.6%.
Still for that read-out and setting: next, `O=C(c1cc(CN2CCCC2)on1)N1CCN(C(=O)c2ccco2)CC1` [SN00791727]: 0.0%; `Cc1cc2n(n1)CCCN2CC(=O)N1CCN(c2ccc(Cl)cc2)CC1` [SN00791741]: 2.4%.
With `Cc1cc2n(n1)CCCN2CC(=O)N1CCN(c2cccc(Cl)c2)CC1` [SN00791744], the “% Inhibition n=1 48h” value was found to be 5.3%.
Still for that read-out and setting: next, `COc1ccc(CNc2nc(-c3cccc(OC)c3)no2)cc1` [SN00791772]: 0.0%.
On the same count and under the same terms, as for `COc1cccc(-c2noc(Nc3cccc(C)c3)n2)c1` [SN00791775], the figure is 0.0%.
On to `COc1ccc(C2=Nc3ccccc3N(CC(=O)Nc3cccc(F)c3)C(=O)C2)cc1` [SN00791795], for which the “Average % Inhibition 24h” value came out at 12.6%, the “% Inhibition n=1 24h” value is on record as 25.2%, the “% Inhibition n=2 24h” value amounted to 0.0% and the “Average % Inhibition 48h” value came to 40.3%. In addition, the “% Inhibition n=1 48h” value is on record as 54.2% and the “% Inhibition n=2 48h” value stood at 26.4%.
With `COc1ccc(C2=Nc3ccccc3N(Cc3cccc(F)c3)C(=O)C2)cc1` [SN00791806], the “Average % Inhibition 24h” value came out at 8.7%, the “% Inhibition n=1 24h” value was determined as 17.4%, the “% Inhibition n=2 24h” value is on record as 0.0% and the “Average % Inhibition 48h” value turned out to be 30.2%. The “% Inhibition n=1 48h” value is recorded as 50.8% and the “% Inhibition n=2 48h” value came out at 9.6%.
Take `O=C(NCCCN1CCCC1)c1ccc2c(c1)N(CC(=O)N1CCCC1)C(=O)CO2` [SN00791845]: the “% Inhibition n=1 48h” value is listed as 0.0%.
On the same count and under the same terms, next, `C=CCNC(=O)CCN1CCN(Cc2ccccc2)C1=O` [SN00791850]: 0.0%; `Cc1sc2c(c1C)C(c1ccc(F)cc1)=NCC(=O)N2CC(=O)Nc1ccc(Cl)cc1` [SN00791866]: 0.0%.
`CCN(CC)C(=O)CN1C(=O)CN=C(c2ccc(OC)cc2)c2c1sc1c2CCCC1` [SN00791881]: the “% Inhibition n=1 48h” value was 0.0%.
For `CC(=O)N1c2ccc(S(=O)(=O)N3CCCCC3)cc2CC1C(=O)N1CCCCC1` (stereo not shown) [SN00791893], the “% Inhibition n=1 48h” value worked out at 0.0%.
The same measure, in the same setting: next, `COc1ccc(-c2cnc(C)o2)cc1S(=O)(=O)Nc1ccc(C)cc1` [SN00792030]: 22.0%; `O=S(=O)(c1ccc(-c2cnc(C3CC3)o2)cc1)N1CCCCC1` [SN00792043]: 8.3%; `CCCNc1nc(N2CCN(CC)CC2)c2cnn(C)c2n1` [SN00792083]: 10.1%.
Regarding `CCOC(=O)c1ccccc1NC(=O)NC(c1ccccc1)c1nnc(-c2ccccc2)o1` (stereo not shown) [SN00792113], the “% Inhibition n=1 48h” value amounted to 0.0%.
Same read-out and setting: as for `O=C(CS(=O)(=O)c1ccc2c(c1)S(=O)(=O)N=CN2)Nc1ccccc1` [SN00792172], the figure is 15.6%; as for `CC(C)(C)c1ccc(C(=O)N2CCC3(CC2)N=C(c2cccc(Cl)c2)C(=O)N3)cc1` [SN00792200], 32.1%; as for `COc1ccc(CN2CCC3(CC2)N=C(c2ccc(C)cc2)C(=O)N3)cc1` [SN00792212], 16.2%.
Same read-out and setting: as for `Cc1ccc(S(=O)(=O)Nc2ccc3c(c2)N(C(=O)c2ccco2)CCC3)cc1C` [SN00792238], the figure is 12.2%; as for `CCC(=O)N1CCCc2ccc(NS(=O)(=O)c3ccc(F)c(C)c3)cc21` [SN00792263], 17.5%; as for `O=C(NCc1cccc(Br)c1)c1ncoc1-c1cccs1` [SN00792278], 6.4%.
Same read-out and setting: as for `O=C(NCc1ccccc1Cl)c1cc2n(n1)CCCN(Cc1ccc(F)cc1)C2=O` [SN00792328], the figure is 0.0%; as for `CCOC(=O)CNC(=O)N1Cc2c(C)nn(-c3ccccc3)c2-n2cccc2C1c1cccc(F)c1` (stereo not shown) [SN00792341], 8.0%.
With `Cn1cc(-c2cc3n(n2)CCC(=O)N3CC(=O)N2CCC3(CC2)OCCO3)c2ccccc21` [SN00792412], the “% Inhibition n=1 48h” value worked out at 10.8%.
Still for that read-out and setting: as for `Cc1cccc(CN2CCC3(CC2)N=C(c2ccc(C)c(C)c2)C(=O)N3)c1` [SN00792562], the figure is 12.3%; as for `CCn1cc(C(=O)NCc2ccccc2)c(=O)c2ccc(C)nc21` [SN00792575], 6.1%; as for `CCOc1ccc(S(=O)(=O)Nc2cccc(-c3ccc(OC)nn3)c2)cc1` [SN00792604], 10.8%.
On the same count and under the same terms, as for `Cc1ccc(NS(=O)(=O)c2cn(C)c(C)n2)c(Br)c1` [SN00792660], the figure is 25.8%; as for `CC1Cc2ccccc2N1C(=O)c1cc(-c2cccnc2)[nH]n1` (stereo not shown) [SN00792679], 19.0%.
